Assay results reported in patent EP1985629A1, “Pro-apoptotic molecules and therapeutic uses thereof” (UNIVERSITA DEGLI STUDI DI GENOVA, priority 2007, dated 2008).
Where a SMILES comes first, the peptide text is derived from it. [ ]: non-standard residue; d: D form. Aib = CC(C)(N)C(=O)O

Columns and labels:
[1] = system: U937 and Jurkat cell lines; assay: Detection of mitochondrial permeability transition (DiOC6 fluorescence); format: cell-based, human; details: two cell lines, 4 days, 5 and 10 µM, two independent experiments
[2] = system: U937, Jurkat, Namalwa; assay: Cell growth, cell counts (trypan blue exclusion), three cell lines; format: cell-based, human; details: 10 µM, twice every 48 h, four days
Procedure: • Figure 1 Fluorescence Anisotropy Assay. Average anisotropy values: (open square) binding assay for increasing concentrations of Bcl-XL at a fixed concentration of fluorescent Bak-BH3 peptide. […] The error bars represent standard deviations observed from triplicate experiments. • Figure 2 072RB: cell growth effects. Panel A: Cell growth of U937 cell line treated for four days every 24 h at a 1 µM 072RB concentration and every 48 h at 3, 5, 10 and 30 µM 072RB concentrations. U937 controls at day 4, cell number: 350,000 ±50,000. Number of cells seeded at day 0: 20,000. Arrows indicate treatment time. […] All cells were counted in a Burker chamber and values are expressed as percentage of the untreated control cell number. Only living cells identified by trypan blue exclusion staining were counted. […] Flow cytometry measurements of DNA content (evaluated by propidium iodide (PI) fluorescence intensity) and physical cell side-scattering (evaluated by SSC) in U937 cells treated with Int and 072RB at 10 µM, twice each 48h. […] Three main cell populations can be observed in the bivariate PI/SSC plots, one with low SSC and normal DNA content (that accounts for "live" cells in culture), another with high SSC and normal DNA content (cells undergoing "early stage of apoptosis") and another one with lower PI fluorescence (cells at "late stage of apoptosis" and debris). […]

[3] = system: tumour cell lines; assay: Propidium iodide (PI) uptake test, cell viability; format: cell-based, human; details: treated for 4 days; data not shown
Procedure: PI uptake tests were performed to assess cell viability. Cells suspended in culture medium were incubated for 5 min with 3 µg/ml PI and analysed by flow cytometry. […] At least 10,000 events were acquired on a logarithmic scale from each sample.
Based on the results reported above we selected treatment concentrations of 5 µM and 10 µM for subsequent experiments. […] To evaluate whether the decreased cell growth was due to cell cycle arrest, cell death, or both, flow cytometry assays to assess cell viability and cell cycle behavior were performed. […] Flow cytometry measurements of DNA content and side scatter confirmed that the main cause of cell growth inhibition after 2 or 4 days of 072RB treatment at 5, 10 or 30 µM respectively, was cell death rather than cell cycle perturbation, as shown in Figure 3A for U937 cells. Three main cell populations can be observed in bivariate plots of side scatter (SSC) vs. DNA content (PI fluorescence), one with low SSC and normal DNA content (that accounts for cells "alive" in culture), another with high SSC and normal DNA content (cells undergoing "an early stage of apoptosis ") and another one with lower PI fluorescence (cells at "a late stage of apoptosis" and debris). The respective DNA histograms (projection of the dot plots on the x-axis) are reported for each plot. […]

[4] = Circular dichroism, relative content of secondary structure elements; format: physicochemical; set-up: key to α-Helix / β-Strands / β-Turns / Random: relative content as fraction, from CDSSTR deconvolution; details: CDSSTR deconvolution
Procedure: Circular dichroism (CD) spectra in the far-UV region (190-260 nm) were collected on a Jasco J-715 spectropolarimeter using a 0.1 cm path-length cuvette. Temperature was kept at 25°C by a Peltier device. Peptide concentration was determined from the absorption of the aromatic residues at 280 nm.
Peptides solutions: Bim-BH3Y and Bim-BH3YA2Aib were suspended in water and potassium hydroxide was added up to complete solubilization. 072RB was dissolved in water. Concentration of stock solutions was about 0.1 mg/ml. For circular dichroism measurements, stock solutions were diluted in 10 mM potassium phosphate buffer, pH 7.
The relative content of secondary structure elements was calculated with the deconvolution program CDSSTR [31] (Table 2). […] 072RB has the highest helical content in the set examined here (0.30 α-helix percent).

[5] = relative content, 10 mM potassium phosphate buffer, pH 7, 25°C

## CC[C@H](C)[C@H](NC(=O)[C@H](CCCNC(=N)N)NC(=O)[C@H](CCCNC(=N)N)NC(=O)[C@H](CC(C)C)NC(=O)[C@H](CCC(=O)O)NC(=O)[C@H](CCC(N)=O)NC(=O)C(C)(C)NC(=O)[C@@H](NC(=O)[C@H](Cc1ccc(O)cc1)NC(=O)[C@@H](NC(=O)[C@H](CCC(=O)O)NC(=O)[C@@H]1CCCN1C(=O)[C@H](CCCNC(=N)N)NC(=O)[C@H](CCSC)NC(=O)[C@@H](N)CC(=O)O)[C@@H](C)CC)[C@@H](C)CC)C(=O)NCC(=O)N[C@@H](CC(=O)O)C(=O)N[C@@H](C)C(=O)N[C@@H](Cc1ccccc1)C(=O)N[C@@H](CC(N)=O)C(=O)NC(C)(C)C(=O)N[C@@H](Cc1ccc(O)cc1)C(=O)N[C@@H](CCCCN)C(=O)N[C@@H](CCCCN)C(=O)N[C@@H](Cc1c[nH]c2ccccc12)C(=O)N[C@@H](CCCCN)C(=O)N[C@@H](CCSC)C(=O)N[C@@H](CCCNC(=N)N)C(=O)N[C@@H](CCCNC(=N)N)C(=O)N[C@@H](CC(N)=O)C(=O)N1CCC[C@H]1C(=O)N[C@@H](Cc1ccccc1)C(=O)N[C@@H](Cc1c[nH]c2ccccc12)C(=O)N[C@H](C(=O)N[C@@H](CCCCN)C(=O)N[C@H](C(=O)N[C@@H](CCC(N)=O)C(=O)N[C@@H](CCCNC(=N)N)C(N)=O)[C@@H](C)CC)[C@@H](C)CC [Peptide 072RB] (H-DMRPEIYI[Aib]QELRRIGDAFN[Aib]YKKWKMRRNPFWIKIQR-NH2; N-terminus and C-terminus assumed)
[1]
  MPT (reduced DiOC6 fluorescence): clear MPT effects
[2]
  cell growth compared to control cultures: progressive decrease of cell growth
[3]
  cell death (PI uptake test): dose-dependent cell death
[4]
  relative content of helices: 0.30 α-helix percent
[4]; [5]
  Random: 0.42
  α-Helix: 0.30
  β-Strands: 0.12
  β-Turns: 0.15
